From patent publication US20240374631A1, “A COMPOSITION FOR IMPROVING GUT MICROBIOTA, BEHAVIOURAL PATTERN, ALPHA-SYNUCLEIN LEVELS, SLEEP PATTERN AND/OR SERUM MELATONIN” (GN Corporation Co Ltd, priority 2021, published 2024)

System: gut microbiota
Test: Gut microbiome analysis (16S rRNA sequencing of fecal samples) in STAM model of NASH
Format: in vivo, C57BL/6J mice
Conditions: post-intervention
Excerpt: The study is reported in accordance with Animal Research: Reporting of In Vivo Experiments (ARRIVE) guidelines. C57BL/6J mice were obtained from Japan SLC, Inc. (Japan). All animals used in this study were cared for under the following guidelines: Act on Welfare and Management of Animals (Ministry of the Environment, Japan, Act No. 105 of Oct. 1, 1973), standards relating to the care and management of laboratory animals and relief of pain (Notice No. 88 of the Ministry of the Environment, Japan, Apr. 28, 2006) and the guidelines for proper conduct of animal experiments (Science Council of Japan, Jun. 1, 2006). Protocol approvals were obtained from SMC Laboratories, Japan's IACUC (Study reference no: […] Mice were maintained in a specific pathogen-free (SPF) facility under controlled conditions of temperature (23±3° C.), humidity (50±20%), lighting (12-hour artificial light and dark cycles; light from 8:00 to 20:00) and air exchange. The STAM model of NASH was induced as previously described [D10]. Mice were given a single subcutaneous injection of 200 μg streptozotocin (STZ, Sigma-Aldrich, USA) solution 2 days after birth and fed with a high-fat diet (HFD, 57 kcal % fat, Cat #HFD32, CLEA Japan, Inc., Japan) from 4-9 weeks of age. All mice develop liver steatosis and diabetes and at […] mice had established steatohepatitis, histologically. Studygroups: There were five study groups, described below. Eight mice were included in each study group. Eight NASH mice were orally administered vehicle supplemented with AFO-202 Beta Glucan at a dose of 1 mg/kg in a volume of 5 mL/kg once daily from 6 to 9 weeks of age. Eight NASH mice were orally administered vehicle supplemented with Telmisartan at a dose of 10 mg/kg once daily from 6 to 9 weeks of age. Frequency: Fecal samples were collected at the 6 weeks of age (before administration) and 9 weeks of age (before sacrifice). Procedure: At 6 weeks of age, fecal samples were collected from each mouse by clean catch method. […] A sterile petri dish was placed on the bench. Gently massage the abdomen, position the bottom of mouse over a fresh petri dish, and collect 1-2 fecal pellets. At sacrifice, fecal samples were aseptically collected from cecum. The tubes with feces were placed on ice immediately. These tubes were snap frozen in liquid nitrogen and stored at -80° C. for shipping. In this analysis, the 16S rRNA sequence data acquired by the next-generation sequencer from the fecal […] was used to perform community analysis using the QIIME2 program for microbial community analysis. The raw read data in FASTQ format output from the next-generation sequencer was trimmed to remove adapter sequences and low QV regions that may be included in the data. Cutadapt was used to remove adapter sequences from DNA sequencing reads. Trimmomatic was used as read trimming tool for Illumina NGS data. The adapter sequence was trimmed using the adapter trimming program “cutadapt” if the Trimming of the region at the end of the read sequence overlapped the corresponding sequence by at least one base (mismatch tolerance: 20%). When reads containing N were present in at least one of Read1 and Read2, both Read1 and Read2 were removed. Trimming of low QV regions was performed on the read data after processing using the QV trimming program “Trimmomatic” under the following conditions. The window of 20 bases is slid from the 5' side, and the area where the average QV is less than 20 is trimmed. After trimming, only the reads with more than 50 bases remaining in both Read1 and Read2 were taken as output. The microbial community analysis based on 16S rRNA sequence was performed on the sequence data trimmed in the previous section using the microbial community analysis program “QIIME2”. The annotation program “sklearn” included in QIIME2 is used to annotate the ASV (OTU) sequences. […]

## CCCc1nc2c(C)cc(-c3nc4ccccc4n3C)cc2n1Cc1ccc(-c2ccccc2C(=O)O)cc1 [Telmisartan]
Line r190
  Abundance: Ruminococcaceae, Oscillospira, —: 135
Line r191
  Abundance: Ruminococcaceae, Oscillospira, —: 53
Line r192
  Abundance: Lachnospiraceae, [Ruminococcus], gnavus: 87
Line r193
  Abundance: Ruminococcaceae, Oscillospira, —: 42
Line r194
  Abundance: Lactobacillaceae, Lactobaccilus, reuteri: 0
Line r195
  Abundance: Coriobacteriaceae, Adlercreutzia, —: 0
Line r196
  Abundance: Lachnospiraceae, —, —: 0
Line r197
  Abundance: S24-7, —, —: 49
Line r198
  Abundance: Turicibacteraceae, Turicibacter, —: 0
Line r199
  Abundance: S24-7, —, —: 41
Line r200
  Abundance: Rikenellaceae, —, —: 86
Line r201
  Abundance: Enterobacteriaceae, Other, Other: 0
Line r202
  Abundance: Rikenellaceae, Other, Other: 53
Line r204
  Abundance: Lactobacillaceae, Lactobaccilus, Other: 0
Line r205
  Abundance: —, —, —: 0
Line r206
  Abundance: S24-7, —, —: 45
Line r207
  Abundance: S24-7, —, —: 109
Line r208
  Abundance: —, —, —: 19
Line r209
  Abundance: Enterobacteriaceae, Klebsiella, Other: 0
Line r210
  Abundance: —, —, —: 3
Line r211
  Abundance: Lachnospiraceae, Other, Other: 137
Line r212
  Abundance: Ruminococcaceae, Oscillospira, —: 0
Line r213
  Abundance: Ruminococcaceae, Oscillospira, —: 65
Line r214
  Abundance: Bacteroidaceae, Bacteroides, acidifaciens: 35
Line r215
  Abundance: Erysipelotrichaceae, —, —: 0
Line r216
  Abundance: Lachnospiraceae, Dorea, —: 74
Line r217
  Abundance: Enterobacteriaceae, Enterobacter, Other: 41
Line r218
  Abundance: Ruminococcaceae, Oscillospira, —: 45
Line r219
  Abundance: Ruminococcaceae, Other, Other: 12
Line r220
  Abundance: Ruminococcaceae, Oscillospira, —: 184
Line r221
  Abundance: Rikenellaceae, —, —: 43
Line r222
  Abundance: —, —, —: 79
Line r223
  Abundance: Lachnospiraceae, Other, Other: 273
Line r224
  Abundance: Other, Other, Other: 87
Line r225
  Abundance: Ruminococcaceae, Oscillospira, —: 72
Line r226
  Abundance: S24-7, —, —: 85
Line r227
  Abundance: Lachnospiraceae, —, —: 0
Line r228
  Abundance: Streptococcaceae, Staphylococcus, —: 27
Line r229
  Abundance: —, —, —: 0
Line r230
  Abundance: —, —, —: 0
Line r231
  Abundance: —, —, —: 101
Line r232
  Abundance: Other, Other, Other: 71
Line r233
  Abundance: Aerococcaceae, Aerococcus, —: 187
Line r234
  Abundance: Ruminococcaceae, —, —: 0
Line r235
  Abundance: —, —, —: 108
Line r237
  Abundance: Ruminococcaceae, Oscillospira, —: 26
Line r238
  Abundance: —, —, —: 51
Line r239
  Abundance: Ruminococcaceae, Ruminococcus, —: 43
Line r240
  Abundance: —, —, —: 266
Line r241
  Abundance: Other, Other, Other: 48
Line r242
  Abundance: Ruminococcaceae, Oscillospira, —: 0
Line r243
  Abundance: Lachnospiraceae, [Ruminococcus], gnavus: 95
Line r244
  Abundance: Lachnospiraceae, —, —: 0
Line r245
  Abundance: Other, Other, Other: 45
Line r246
  Abundance: Ruminococcaceae, Oscillospira, —: 23
Line r247
  Abundance: —, —, —: 90
Line r248
  Abundance: Other, Other, Other: 11
Line r249
  Abundance: Other, Other, Other: 53
Line r250
  Abundance: Other, Other, Other: 57
Line r251
  Abundance: Lachnospiraceae, Clostridium, Other: 101
Line r252
  Abundance: Lachnospiraceae, —, —: 23
Line r253
  Abundance: Other, Other, Other: 0
Line r254
  Abundance: Other, Other, Other: 51
Line r255
  Abundance: Ruminococcaceae, Oscillospira, —: 38
Line r256
  Abundance: Desulfovibrionaceae, —, —: 42
Line r257
  Abundance: Dehalobacteriaceae, Dehalobacterium, —: 0
Line r259
  Abundance: Ruminococcaceae, Ruminococcus, —: 22
Line r260
  Abundance: Lachnospiraceae, Coprococcus, —: 46
Line r261
  Abundance: Ruminococcaceae, Oscillospira, —: 77
Line r262
  Abundance: Other, Other, Other: 38
Line r263
  Abundance: Lachnospiraceae, Coprococcus, —: 49
Line r264
  Abundance: Ruminococcaceae, Oscillospira, —: 0
Line r265
  Abundance: Christensenellaceae, —, —: 9
Line r266
  Abundance: S24-7, —, —: 8
Line r267
  Abundance: Ruminococcaceae, Oscillospira, —: 0
Line r268
  Abundance: Lachnospiraceae, Coprococcus, —: 29
Line r269
  Abundance: Lachnospiraceae, Other, Other: 0
Line r271
  Abundance: Erysipelotrichaceae, Clostridium, cocleatum: 34
Line r272
  Abundance: —, —, —: 0
Line r273
  Abundance: Desulfovibrionaceae, Bilophila, —: 17
Line r274
  Abundance: —, —, —: 0
Line r275
  Abundance: Corynebacteriaceae, Corynebacterium, stationis: 0
Line r276
  Abundance: Lachnospiraceae, Other, Other: 34
Line r277
  Abundance: Lachnospiraceae, Other, Other: 82
Line r278
  Abundance: Lachnospiraceae, —, —: 10
Line r279
  Abundance: Lachnospiraceae, —, —: 0
Line r280
  Abundance: —, —, —: 0
Line r281
  Abundance: —, —, —: 84
Line r282
  Abundance: —, —, —: 0
Line r283
  Abundance: Ruminococcaceae, —, —: 0
Line r284
  Abundance: —, —, —: 0
Line r285
  Abundance: Lachnospiraceae, —, —: 0
Line r286
  Abundance: Dehalobacteriaceae, Dehalobacterium, —: 43
Line r287
  Abundance: Other, Other, Other: 68
Line r288
  Abundance: Streptococcaceae, Streptococcus, luteciae: 0
Line r289
  Abundance: —, —, —: 0
Line r290
  Abundance: S24-7, —, —: 36
Line r292
  Abundance: Ruminococcaceae, Ruminococcus, —: 0
Line r293
  Abundance: Lachnospiraceae, Clostridium, Other: 0
Line r294
  Abundance: —, —, —: 10
Line r295
  Abundance: Ruminococcaceae, Oscillospira, —: 22
Line r296
  Abundance: Lachnospiraceae, Coprococcus, —: 30
Line r297
  Abundance: —, —, —: 0
